Test results from patent US12440431B2, “Cosmetic comprising ultraviolet wavelength conversion substance” (Shiseido Company, Ltd., priority 2019, dated 2025).

Columns and labels:
Human dermal fibroblasts [1] = assay: Restoration of cell activity decreased by prior UV irradiation (AlamarBlue); assay type: cell-based; details: pre-irradiation 400 mJ/cm^2 without substance, then UV 0-200 mJ/cm^2 through 0.4% or 2% C-phycocyanin (equivalent effect), FIG. 5
Experimental: (§1) 1. Human dermal fibroblasts and human skin keratinocytes purchased from Kurabo Industries Ltd. were used. A cell suspension (1 mL) stored in liquid nitrogen was thawed in a water bath (37° C.) to an extent that small ice pellets remained, and then diluted with 9 mL of warm medium. 2. The diluted suspension was mixed gently and then transferred to a T75 flask and incubated overnight at 37° C. 3. The next day, the medium was replaced with 10 mL of fresh medium. 4. The medium was replaced periodically (once every 2 days for fibroblasts and once every 2 to 3 days for keratinocytes) and cell proliferation was continued. Meanwhile, the cells were observed using a microscope, and it was confirmed that the cells grew in the correct form. 5. After the cells reached about 80% confluence, the cells were passaged. The cells were passaged by washing the cells once with 10 mL of warm PBS, adding 5 mL of warm trypsin to a T75 flask, covering the bottom of the flask with a trypsin solution, followed by aspirating at room temperature for 1 minute. 6. The flask was allowed to stand in an oven at 37° C. for (maximum) 2 minutes for fibroblasts and (maximum) 7 minutes for keratinocytes. The cells were observed using a microscope and confirmed to be small and oval. 7. Thereafter, the side of the T75 flask was lightly tapped to release the cells. […]

Human dermal fibroblasts [2] = assay: Cell activity (AlamarBlue) of cells irradiated with UV through a UV wavelength conversion substance solution; assay type: cell-based; details: UV dose 0-100 mJ/cm^2, FIG. 3
Experimental: The UV wavelength conversion substances (1) and (2) were dissolved in water to prepare solutions having a concentration of 1% or 5%.
The UV wavelength conversion substances (3) and (4) were dispersed in alcohol to prepare 5% and 10% dispersions.
as §1, with “6.” for “6. The flask was allowed to stand in an oven at 37° C. for (maximum) 2 minutes for fibroblasts and (maximum) 7 minutes for keratinocytes. The cells were observed using a microscope and confirmed to be small and oval. 7. Thereafter, the side of the T75 flask was lightly tapped to release the cells.”

Substance: C-phycocyanin
- cell activity (relative fluorescence intensity) after prior decrease by UV (Human dermal fibroblasts [1]): cell activity was recovered
- cell activity (relative fluorescence intensity) (Human dermal fibroblasts [2]; 0.4% C-phycocyanin solution): the decrease in cell activity was suppressed
- cell activity (relative fluorescence intensity) (Human dermal fibroblasts [2]; 2% C-phycocyanin solution): the cell activity was even increased compared to the case where UV irradiation was not carried out
